Laboratory results as given in patent US8383638B2, “Aminobenzoquinazolinone M1 receptor positive allosteric modulators” (Merck Sharp & Dohme, priority 2009, dated 2013).

The compounds below were run against T1, acetylcholine muscarinic M1 receptor (Homo sapiens, UniProt P11229) (assay: muscarinic FLIPR assay: potentiation of acetylcholine (EC20)-stimulated intracellular Ca2+ in CHOnfat/hM1 cells). Conditions: 4 min preincubation, then EC20 acetylcholine (3 nM final), positive allosteric modulator activity, read-out: IP Value (inflection point).
T1 construct: expressed in transfected cells; host or cells: CHOnfat cells (CHO; also called CHOK1/hM1)
T1 sequence (P11229 1-460): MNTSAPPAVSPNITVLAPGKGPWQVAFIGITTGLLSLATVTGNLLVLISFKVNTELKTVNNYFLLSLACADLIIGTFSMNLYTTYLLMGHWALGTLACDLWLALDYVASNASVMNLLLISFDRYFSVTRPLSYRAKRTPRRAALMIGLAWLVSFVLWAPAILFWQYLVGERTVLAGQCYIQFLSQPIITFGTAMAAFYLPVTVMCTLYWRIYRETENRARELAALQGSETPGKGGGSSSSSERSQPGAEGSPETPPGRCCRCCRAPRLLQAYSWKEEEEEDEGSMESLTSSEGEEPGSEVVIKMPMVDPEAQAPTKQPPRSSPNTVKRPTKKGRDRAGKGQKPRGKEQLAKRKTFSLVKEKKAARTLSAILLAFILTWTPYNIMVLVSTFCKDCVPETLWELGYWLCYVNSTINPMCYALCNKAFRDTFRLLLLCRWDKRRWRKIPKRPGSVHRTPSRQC
Type: cell-based
Procedure: The assay studies the effect of one or several concentrations of test compounds on basal or acetylcholine-stimulated Ca^2+ levels using FLIPR.
Compounds are prepared and subjected to a preincubation period of 4 min. Thereafter, a single EC20 concentration of acetylcholine is added to each well (3 nM final). The intracellular Ca^2+ level of each sample is measured and compared to an acetylcholine control to determine any modulatory activity.
Cells: CHOnfat/hM1, hM2, hM3 or hM4 cells are plated 24 hr before the assay at a density of 18,000 cells/well (100 μL) in a 384 well plate. CHOnfat/hM1 and CHOnfat/hM3 Growth Medium: 90% DMEM (Hi Glucose); 10% HI FBS; 2 mM L-glutamine; 0.1 mM NEAA; Pen-Strep; and 1 mg/ml Geneticin, are added. For M2Gqi5CHOnfat and M4Gqi5CHOnfat cells, an additional 600 ug/ml hygromycin is added.
Equipment: 384 well plate, 120 μL addition plate; 96-well Whatman 2 ml Uniplate Incubator, 37° C., 5% CO2; Skatron EMBLA-384 Plate Washer; Multimek Pipetting System; Genesis Freedom 200 System; Mosquito System; Temo Nanoliter Pipetting System; and FLIPR^384 Fluorometric Imaging Plate Reader System are used.
Buffers. Assay Buffer: Hanks Balanced Salt Solution, with 20 mM Hepes, 2.5 mM Probenecid (Sigma P-8761) first dissolved in 1 N NaOH, 1% Bovine Serum Albumin (Sigma A-9647). Dye Loading Buffer: Assay Buffer plus 1% Fetal Bovine Serum and Fluo-4AM/Pluronic Acid Mixture. 2 mM Fluo-4AM ester stock in DMSO (Molecular Probes F-14202) Concentration of 2 μM in buffer for a final concentration of 1 μM in Assay. 20% Pluronic Acid Solution stock, with concentration of 0.04% in Buffer, 0.02% in Assay.
65 μL of 2 mM Fluo-4AM are mixed with 130 μL of 20% Pluronic Acid. The resulting solution and 650 μL FBS is added to the assay buffer for a total volume of 65 mL. Positive Controls: 4-Br-A23187: 10 mM in DMSO; final concentration 10 μM. Acetylcholine: 10 mM in water, working stock at both 20 μM and 30 μM in assay buffer, final concentration of 10 μM. This is used to check the maximum stimulation of the CHOK1/hM1 cells. 20 μM (2×) acetylcholine is added in the preincubation part of the assay, and the 30 μM (3×) stock is added in the second part. (EC20)Acetylcholine: 10 mM in water, working stock of 9 nM (3×), and final concentration in assay is 3 nM. This is used after the preincubation with test compounds. Addition of the EC20 Acetylcholine to each well with a test compound will ascertain any modulator activity. 24 wells contain 3 nM Acetylcholine alone as a control.
Screening Plate Compounds are titrated in 96-well plates (columns 2-11), 100% DMSO, started at a concentration of 15 mM (150× stock concentration), and 3-fold serial dilutions using Genesis Freedom200 System. Four 96-well plates are combined into a 384-well plate using Mosquito Nanoliter Pipetting System by transferring 1 μl of serial diluted compounds to each well, and 1 mM acetylcholine (100× stock concentration) were added as a control. Using Temo, 49 μl assay buffer is added to each well of the 384-well plate right before assay.
In a 96-well Whatman 2 ml Uniplate, 9 nM Acetylcholine (3×) is pipetted into wells corresponding to the screening compounds, and into control wells. The 30 μM acetylcholine control (3×) is added into control wells, and the 3× agonist plate is transferred into a 384 well plate.
Cells are washed three times with 100 μL of buffer, leaving 30 μL of buffer in each well. Using Multimek, 30 μL of Dye Loading Buffer is added into each well and incubated at 37° C., 5% CO2 for up to one hr.
After 60 min, the cells are washed three times with 100 μL of buffer, leaving 30 μL […] of buffer in each well. The cell plate, screening plate, and agonist addition plates are placed on the platform in the FLIPR and the door closed. A signal test to check background fluorescence and basal fluorescence signal is performed. Laser intensity is adjusted if necessary. […]

| Structure (SMILES) | EC50 [nM] |
| --- | --- |
| N#CC1(c2ccccn2)CCN(Cc2cc3c(=O)n([C@H]4CCCC[C@@H]4O)cnc3c3ccccc23)CC1 (racemic) [Example 1, rac-1-({3-[(1R,2R)-2-Hydroxycyclohexyl]-4-oxo-3,4-dihydrobenzo[h]quinazolin-6-yl}methyl)-4-pyridin-2-ylpiperidine-4-carbonitrile] | 45 |
| Cn1cc(N2CCN(Cc3cc4c(=O)n([C@H]5CCCC[C@@H]5O)cnc4c4ccccc34)CC2=O)cn1 (racemic) [Example 7, rac-3[(1R,2R)-2-Hydroxycyclohexyl]-6-{[4-(1-methyl-1H-pyrazol-4-yl)-3-oxopiperazin-1-yl]methyl}benzo[h]quinazolin-4(3H)-one] | 44 |
| N#CC1(c2ccccn2)CCN(Cc2cc3c(=O)n([C@H]4CCCC[C@@H]4O)cnc3c3ccccc23)CC1 [Example 2, 1-({3-[(1S,2S)-2-Hydroxycyclohexyl]-4-oxo-3,4-dihydrobenzo[h]quinazolin-6-yl}methyl)-4-pyridin-2-ylpiperidine-4-carbonitrile] | 18 |
| N#CC1(c2ccccn2)CCN(Cc2cc3c(=O)n([C@H]4CCOC[C@@H]4O)cnc3c3ccccc23)CC1 [Example 3] | 31 |
| N#CC1(c2ccccn2)CC[N+]([O-])(Cc2cc3c(=O)n([C@H]4CCCC[C@@H]4O)cnc3c3ccccc23)CC1 (stereo partly drawn) [Example 4, 1-({3-[(1S,2S)-2-Hydroxycyclohexyl]-4-oxo-3,4-dihydrobenzo[h]quinazolin-6-yl}methyl)-4-pyridin-2-ylpiperidine-4-carbonitrile 1-oxide] | 3880 |
| Cc1ccnc(C2(C#N)CCN(Cc3cc4c(=O)n([C@H]5CCCC[C@@H]5O)cnc4c4ccncc34)CC2)c1 [Example 5, 1-({3-[(1S,2S)-2-Hydroxycyclohexyl]-4-oxo-3,4-dihydropyrido[3,4-h]quinazolin-6-yl}methyl)-4-(4-methylpyridin-2-yl)piperidine-4-carbonitrile] | 21 |
| O=c1c2cc(CN3CCN(c4ccsc4)CC3)c3ccccc3c2ncn1[C@H]1CCCC[C@@H]1O [Example 6, 3-[(1S,2S)-2-Hydroxycyclohexyl]-6-{[4-(3-thienyl)piperazin-1-yl]methyl}benzo[h]quinazolin-4(3H)-one] | 387 |
| CC1(C#N)CCN(Cc2cc3c(=O)n([C@H]4CCCC[C@@H]4O)cnc3c3ccccc23)CC1 [Example 8, 1-({3-[(1S,2S)-2-Hydroxycyclohexyl]-4-oxo-3,4-dihydrobenzo[h]quinazolin-6-yl}methyl)-4-methylpiperidine-4-carbonitrile] | 339 |
| O=c1c2cc(CN3CCC(F)(c4ccccn4)CC3)c3ccccc3c2ncn1[C@H]1CCCC[C@@H]1O [Example 9, 6-[(4-Fluoro-4-pyridin-2-ylpiperidin-1-yl)methyl]-3-[(1S,2S)-2-hydroxycyclohexyl]benzo[h]quinazolin-4(3H)-one] | 105 |
